Data as given in paper PMC4982898, “Molecular Design, Structural Analysis and Antifungal Activity of Derivatives of Peptide CGA-N46” (Interdisciplinary Sciences, Computational Life Sciences, 2016).

Tests used:
Assay type in all cases: cell-based
[1] = tested on: Human red blood cells (RBCs)
Protocol: Hemolytic activity was tested according to the method. Briefly, peptides were serially twofold diluted using PBS in 96-well plates to give a volume of 100 μL of the sample solution in each well, and the final concentration of peptides ranged between 2.0 mg mL^−1 and 3.9 μg mL^−1. Human red blood cells (RBCs) from a healthy volunteer were diluted to a concentration of 2 % in PBS. 100 μL of the RBC suspension was added to each well, and the reactions were incubated at 37 °C for 60 min, followed by 150 μL supernatant being transferred to a new 96-well plate (U-shaped well). The release of hemoglobin was determined by measuring the absorbance of the supernatant at 570 nm. RBCs in PBS and 0.1 % (v/v) Triton-X100 were used as the negative and positive controls, respectively. The percentage of hemolysis was calculated using the following formula: Hemolysis rate%=[(OD570of the treated sample-OD570of the negative control)/OD570of the positive control-OD570of the negative control]×100%. Each test was performed in triplicate, and the data were expressed as the mean ± SE.

[2] = tested on: Candida tropicalis (ATCC-20240); assay: Antifungal MIC, broth microdilution with MTT; settings: most sensitive yeast
Protocol: (§1) Candida glabrata (ATCC-90525), Candida parapsilosis (ATCC-20224), Candida krusei (ATCC-6258), Candida tropicalis (ATCC-20240), Candida albicans (ATCC-2048) were supplied by the Chinese Academy of Medical Sciences.
(§2) Minimum inhibitory concentrations (MICs) of CGA-N46 and its derivatives against fungi were measured according to a modified version of broth microdilution method of the Clinical and Laboratory Standards Institute (CLSI). Fungi cell’s viability was assessed based on the reduction of 3-[4,5-dimethylthiazolyl]-2,5-diphenyltetrazolium bromide (MTT) into formazan dye by active mitochondria. Briefly, peptides were serially twofold diluted in 20 mM PBS (pH 6.0) to a final concentration between 2 mg mL^−1 and 3.9 µg mL^−1. Subsequently, 100 μL samples was dispensed into the wells of a 96-U-shaped-well plate, and each was mixed with 100 μL of the 2 × inoculum suspension (1–5 × 10^4 CFU mL^−1) of a log-phase fungal culture in Sabouraud (SD) broth. Strains without treatment with peptides were used as negative control. The cultures were incubated at 30 °C without agitation for 16 h. 10 μL of MTT solution (5 mg mL^−1 MTT in PBS) was added to each well, and the plate was further incubated for 4 h. After rinsed, 100 μL of dimethylsulfoxide (DMSO) was added to dissolve the MTT formazan crystals. The inhibition of growth was determined by measuring the absorbance at 570 nm with a microplate reader. The relative cellular activity was calculated according to the following formula: cell survival inhibition rate (\% of control)= [(OD570of the negative sample-OD570of the treated sample) / OD570of the negative control]×100\%.
(§3) Each test was performed in triplicate, and the data were expressed as the mean ± SE.

[3] = tested on: Candida krusei (ATCC-6258); assay: Antifungal MIC, broth microdilution with MTT; settings: most sensitive yeast
Protocol: as §1, §2, §3

[4] = tested on: Candida albicans (ATCC-2048); assay: Antifungal MIC, broth microdilution with MTT; settings: most sensitive yeast
Protocol: as §1, §2, §3

[5] = tested on: Candida glabrata (ATCC-90525); assay: Antifungal MIC, broth microdilution with MTT; settings: most sensitive yeast
Protocol: as §1, §2, §3

Row | Substance | 5 % Hemolysis [1] [mmol/L] | hemolytic activity (in words) [1] | MIC C. tropicalis [2] [mM] | MIC C. krusei [3] [mM] | MIC C. albicans [4] [mM] | MIC C. glabrata [5] [mM]
1 | H-ALQGAKERAHQQ-OH [CGA-N12, NH2–ALQGAKERAHQQ–COOH] | 0.39 | weak hemolytic activity at the concentration of MIC | 0.075 | – | – | –
2 | H-ERILSILRHQNLLKE-OH [CGA-N15, NH2–ERILSILRHQNLLKE–COOH] | 0.031 | strong hemolytic activity | 0.073 | – | – | –
3 | H-GAKERAHQ-OH [CGA-N8, NH2–GAKERAHQ–COOH] | 0.27 | MIC was near the concentration of its 5 % hemolysis | – | 0.24 | 0.24 | –
4 | H-LQDLALQGAKERAHQQ-OH [CGA-N16, NH2–LQDLALQGAKERAHQQ–COOH] | 0.056 | strong hemolytic activity | – | – | – | 0.28
5 | H-PMPVSQECFETLRGHERILSILRHQNLLKELQDLALQGAKERAHQQ-OH [CGA-N46] | 0.74 | weak hemolytic activity at the concentration of MIC | – | – | – | –
